Measured values from PMC8956739, “A synthetic lipopeptide targeting top-priority multidrug-resistant Gram-negative pathogens” (Nature Communications, 2022).
In brackets after ≈: the same amount, converted by molar mass. Several values for one entry are separate records, joined by “and”; a condition that tells them apart may be missing. Identical values can stand only once. Like-named read-outs stand apart in the source and are kept apart here. Residues, ends and D or L forms follow the SMILES beside them.

Experiments:
[1] = Acute toxicity in mice (maximum tolerated dose, IV bolus); assay type: in vivo, mouse; conditions: mouse, in vivo, iv, single IV bolus dose, replicates 1-4; read-out: MTD, single replicate
Summary of the method: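 Female Swiss mice (7 weeks, 22–28 g) given single IV tail-vein bolus of lipopeptide in 0.9% saline, dosed as mg/kg free base. Clinical toxicity signs monitored over 0–24 h, most frequently in first 2 h.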

[2] = assay type: in vitro ADME; conditions: plasma
Description: The plasma pharmacokinetic profiles of F365 and polymyxin B were assessed in Swiss mice (female, 7-week-old, 22–28 g) after a single intraperitoneal dose (5 mg/kg, n = 3). Blood samples were collected at various time points over 24 h post dosing for analysis. The plasma pharmacokinetic profiles of F365 (n = 5) and polymyxin B (1 mg/kg, n = 11) in Sprague-Dawley rats (male, 10-week-old, 280 to 330 g) were assessed after intravenous administration (1 min) of F365 and polymyxin B via an indwelling jugular vein cannula. Blood samples (~0.3 mL) were collected via an indwelling carotid artery cannula at various time points over 24 h post dosing. Urine samples were collected at 4 °C using a metabolic cage during the period between 0 and 24 h post dosing. Concentrations of F365 and polymyxin B in plasma and urine samples were determined using LC-MS/MS and pharmacokinetic analysis was conducted using WinNonlin (Pharsight Corp., Mountain View, CA). The ELF pharmacokinetic profiles of F365 and polymyxin B was determined in neutropenic Swiss mice (female, 7-week-old, 22–28 g) after subcutaneous injection (40 mg/kg, n = 3). Bronchoalveolar lavage (BAL) samples were collected at various time points over 24 h post dosing from the cannulated trachea using Milli-Q water as BAL washing media. The average volume of ELF in mice was calculated by the ratio of urea concentrations in plasma and BAL samples. Concentrations of F365 and polymyxin B in plasma and BAL were analyzed by LC-MS/MS. Pharmacokinetic parameters were calculated using a non-compartment model with WinNonlin. For mouse, rat, and human plasma protein binding of F365 and polymyxin B, pooled plasma samples (n = 3) from each species were spiked with F365 or polymyxin B. The spiked plasma samples were subjected to ultrafiltration and the corresponding filtrates were analyzed by LC-MS/MS to determine the concentration of F365 and polymyxin B and the protein binding in each species.

[3] = tested on: P. aeruginosa FADDI-PA070; assay type: cell-based, Pseudomonas aeruginosa
Summary of the method: (§1)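 Broth microdilution, CaMHB; MIC read as the antibacterial endpoint against ATCC reference strains and clinical isolates.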

[4] = tested on: P. aeruginosa FADDI-PA090; assay type: cell-based, Pseudomonas aeruginosa
Summary of the method: as §1

A. baumannii FADDI-AB051 = test: Neutropenic mouse pneumonia model; assay type: in vivo; conditions: for bacterial killing in lung at 24 h vs pre-treatment inoculum: 45 mg/kg/d IP in three divided doses every 8 h; for Tukey HSD diff, Pre-treatment minus treated group (Log10 CFU/lung) / Tukey HSD diff, Vehicle minus treated group (Log10 CFU/lung): Fig. b; for Log10 CFU/lung: Figure 3b, individual mice
Description: (§2) The experimental methodology for the neutropenic mouse lung infection model was previously described in detail. Briefly, Swiss mice (female, 7-week-old, 22–28 g) were rendered neutropenic by intraperitoneal administration of cyclophosphamide, 4 days (150 mg/kg) and 1 day (100 mg/kg) prior to inoculation. Lung infection was established by the administration of 25 µL of early log-phase bacterial suspension (polymyxin-susceptible or resistant isolate, 4 × 10^7 CFU/mL), directly into the lungs via the trachea using a MicroSprayer™ device. Lipopeptide solutions were prepared in sterile saline. At 2 h after inoculation, mice (n = 3 or 4) were administered lipopeptide (45–240 mg/kg/d free base) or control (sterile saline) via an intraperitoneal or subcutaneous bolus injection in three divided doses every 8 h. At 0 or 24 h after the administration of lipopeptide solution or saline (control), animals were euthanized and lungs were collected and homogenized under sterile conditions. Homogenate was filtered and the filtrate was collected, serially diluted in sterile saline, and spread on nutrient agar plates. Agar plates were incubated at 37 °C overnight for bacterial colony counting and the bacterial load of the lung (log10 CFU/lung) in each mouse was calculated. In vivo efficacy was calculated as the difference of the log10 CFU/lung values between the treated mice at 24 h and the pre-treatment (control) at 0 h (Δlog10 CFU/lung = log10 [treated] CFU/lung − log10 [pre-treatment] CFU/lung).

[5] = tested on: K. pneumoniae FADDI-KP065; test: Neutropenic mouse pneumonia model; assay type: in vivo; conditions: for bacterial killing in lung at 24 h vs pre-treatment inoculum: 45 mg/kg/d IP in three divided doses every 8 h; for Tukey HSD diff, Pre-treatment minus treated group (Log10 CFU/lung) / Tukey HSD diff, Vehicle minus treated group (Log10 CFU/lung): Fig. c; for Log10 CFU/lung: Figure 3c, individual mice
Description: as §2

A. baumannii FADDI-AB156 = test: MIC, polymyxin-resistant isolate; assay type: cell-based, Acinetobacter baumannii; conditions: carbapenem-resistant
Description: MICs were determined in cation-adjusted Mueller–Hinton broth (CaMHB) by the broth micro-dilution method against ATCC strains and clinical isolates. MICs in the presence of Survanta® were determined as described above against P. aeruginosa ATCC 27853. In the 100 μL of fresh CaMHB containing polymyxins, 10% Survanta® (v/v, 2.5 mg/mL phospholipids) was added. MICs in the presence and absence of Survanta® were compared to determine the effect of binding to lung surfactant on the antibacterial activity of polymyxins.

[6] = 90 mg/kg/d IP in three divided doses every 8 h

| Compound | MTD [1] [mg/kg] | bacterial killing in lung at 24 h vs pre-treatment inoculum (A. baumannii FADDI-AB051) | Tukey HSD diff, Pre-treatment minus treated group (Log10 CFU/lung) (A. baumannii FADDI-AB051; 45mg/kg/d) | Tukey HSD diff, Vehicle minus treated group (Log10 CFU/lung) (A. baumannii FADDI-AB051; 45mg/kg/d) | Log10 CFU/lung (A. baumannii FADDI-AB051; 45mg/kg/d) | bacterial killing in lung at 24 h vs pre-treatment inoculum [5] | Tukey HSD diff, Pre-treatment minus treated group (Log10 CFU/lung) ([5]; 45mg/kg/d) | Tukey HSD diff, Vehicle minus treated group (Log10 CFU/lung) ([5]; 45mg/kg/d) | Log10 CFU/lung ([5]; 45mg/kg/d) | MIC A. baumannii FADDI-AB156 (A. baumannii FADDI-AB156) [µg/mL] | also measured |
| --- | --- | --- | --- | --- | --- | --- | --- | --- | --- | --- | --- |
| CCCCCCCC(=O)N[C@@H](CCN)C(=O)N[C@H](C(=O)N[C@@H](CN)C(=O)N[C@H]1CCNC(=O)[C@H]([C@@H](C)O)NC(=O)[C@H](CCN)NC(=O)[C@H](CCN)NC(=O)[C@H](CC)NC(=O)[C@@H](CC(C)C)NC(=O)[C@H](CCN)NC1=O)[C@@H](C)O [Lipopeptide F287] (HELM PEPTIDE1{[CCCCCCCC(=O)[*:2]].[Dab].T.[NC[C@H](N[*:1])C(=O)[*:2]].[Dab].[Dab].[dL].[Abu].[Dab].[Dab].T}$PEPTIDE1,PEPTIDE1,5:R3-11:R2$$$V2.0) | 6 |  |  |  |  |  |  |  |  |  |  |
| CC[C@@H]1NC(=O)[C@@H](CC(C)C)NC(=O)[C@H](CCN)NC(=O)[C@@H](NC(=O)[C@H](CN)NC(=O)[C@@H](NC(=O)[C@H](CCN)NC(=O)c2ccc(Cl)cc2Cl)[C@@H](C)O)CCNC(=O)[C@H]([C@@H](C)O)NC(=O)[C@H](CCN)NC(=O)[C@H](CCN)NC1=O [Lipopeptide F365] (HELM PEPTIDE1{[O=C(c1ccc(Cl)cc1Cl)[*:2]].[Dab].T.[NC[C@H](N[*:1])C(=O)[*:2]].[Dab].[Dab].[dL].[Abu].[Dab].[Dab].T}$PEPTIDE1,PEPTIDE1,5:R3-11:R2$$$V2.0) | 13 | did not show any significant killing | -1.2425 | 0.7467 | 7.89 Log10 CFU/lung and 8.25 Log10 CFU/lung and 7.87 Log10 CFU/lung and 7.93 Log10 CFU/lung | did not show any significant killing | 0.265 | 2.146 | 4.76 Log10 CFU/lung and 7.31 Log10 CFU/lung and 6.40 Log10 CFU/lung and 7.13 Log10 CFU/lung | 4 (≈ 3.45 µM) | fraction unbound ([2]; human): 0.55; fraction unbound ([2]; mouse): 0.64; fraction unbound ([2]; rat): 0.67; MIC P. aeruginosa FADDI-PA070 ([3]; FADDI-PA070): > 32 µg/mL; MIC P. aeruginosa FADDI-PA090 ([4]; FADDI-PA090): 8 µg/mL (≈ 6.9 µM); bacterial killing in lung at 24 h (A. baumannii FADDI-AB051; [6]): bacterial killing; Tukey HSD diff, Pre-treatment minus treated group (Log10 CFU/lung) (A. baumannii FADDI-AB051; 90mg/kg/d): 2.8025; Tukey HSD diff, Vehicle minus treated group (Log10 CFU/lung) (A. baumannii FADDI-AB051; 90mg/kg/d): 4.792; Log10 CFU/lung (A. baumannii FADDI-AB051; 90mg/kg/d): 3.25 Log10 CFU/lung and 3.88 Log10 CFU/lung and 6.08 Log10 CFU/lung and 2.55 Log10 CFU/lung; bacterial killing in lung at 24 h [5, 6]: bacterial killing; Tukey HSD diff, Pre-treatment minus treated group (Log10 CFU/lung) ([5]; 90mg/kg/d): 2.6475; Tukey HSD diff, Vehicle minus treated group (Log10 CFU/lung) ([5]; 90mg/kg/d): 4.5285; Log10 CFU/lung ([5]; 90mg/kg/d): 5.21 Log10 CFU/lung and 3.53 Log10 CFU/lung and 3.48 Log10 CFU/lung and 3.85 Log10 CFU/lung |
| Polymyxin B [reference compound] |  | did not show any significant killing | -1.5825 | 0.4067 | 8.40 Log10 CFU/lung and 8.27 Log10 CFU/lung and 8.53 Log10 CFU/lung and 8.10 Log10 CFU/lung | did not show any significant killing | -0.6875 | 1.1935 | 7.24 Log10 CFU/lung and 7.26 Log10 CFU/lung and 7.84 Log10 CFU/lung and 7.07 Log10 CFU/lung | 8 | Protein binding ([2]; human): 68%; Protein binding ([2]; mouse): 95%; Protein binding ([2]; rat): 80%; MIC P. aeruginosa FADDI-PA070 ([3]; polymyxin-resistant): > 32 µg/mL; MIC P. aeruginosa FADDI-PA090 ([4]; polymyxin-resistant): 4 µg/mL |
